Data taken from patent US20090018111A1, “Novel Antimicrobial Medicament” (priority 2004, published 2009).
Where two headings read alike, the source gives them in different places.

How the values were obtained:
E. faecium ATCC19434 = assay: Sensitivity test (agar dilution); format: cell-based, Enterococcus faecium
Protocol: The antibacterial activities were tested against various 18 bacteria (27 standard strains) which are representative bacteria caused clinically infectious disease (Staphylococcus aureus 3 strains, Staphylococcus epidermidis 1 strain, Micrococcus luteus 1 strain, Streptococcus pyogenes 1 strain, Enterococcus faecalis 1 strain, Enterococcus faecium 1 strain, Bacillus subtilis 1 strain, Escherichia coli 3 strains, Klebsiella pneumoniae 1 strain, Proteus mirabilis 1 strain, Proteus vulgaris 2 strains, Pseudomonas aeruginosa 3 strains, Serratia marcescens 2 strains, Enterobacter aerogenes 1 strain, Stenotrophomonas maltophilia 1 strain, Enterobacter cloacae 1 strain, Citrobacter freundii 1 strain, Moraxella catarrhalis 2 strains).
(§1) According to the standard method of Japan Chemotherapeutic Society (Chemotherapy, vol. […], p 76-79 (1981)) the test was carried out using the agar dilution method. After dissolving test samples in distilled water, agar medium containing the test samples was prepared in such a manner that the final concentration became twice serial dilution by pouring serially diluted combination drug solution or a single drug solution into agar medium. As agar medium was used Mueller Hinton Agar medium (MHA). Then, each strain was cultivated over night at 37° C. in an incubator and suspended in buffered saline solution with gelatin (BSG) in the concentration of about 10^6 CFU/ml. The suspension (about 5 μl) containing test strains was inoculated to the medium containing the test samples by Micro Planter.
When the sample is subjected to sensitivity test, this mixed solution was diluted by twice serial dilution method.
(§2) Furthermore, when the drug is solely used, each test sample was used as it is, and diluted by twice serial dilution method from the maximum concentration to the minimum concentration.
FIC index based on MIC value was calculated. […] Namely, when FIC index calculated by the following formula is equal or less than 1, the enhanced effect of the combination drug in said ratio is considered as positive. When FIC index is over 1, the enhanced effect of the combination drug in said ratio is considered as negative.
Formula of FIC index: FIC index=(MIC of Drug A in combination/MIC of Drug A alone)+(MIC of Drug B in combination/MIC of Drug B alone) N.C. in tables means being not calculated.

B. cepacia 14300 = assay: Sensitivity test (agar dilution), clinical isolate; format: cell-based, Burkholderia cepacia
Protocol: (§3) In addition, the antibacterial activities were tested against strains which are comparatively less sensitive to β-lactam compounds, namely clinically isolated 13 strains of Acinetobacter calcoaceticus and Acinetobacter lwoffi, clinically isolated 11 strains of Serratia marcescens, clinically isolated 12 strains of Burkholderia cepacia, and clinically isolated 15 strains of Pseudomonas aeruginosa.
as §1
(§4) Each drug was weighed, and dissolved in distilled water to give a test sample. When the drugs are used in combination, two kinds of solution containing each drug were mixed so as to be various ratio of concentration to give a mixed solution. When the sample is subjected to sensitivity test, this mixed solution was diluted by twice serial dilution method.
as §2

B. cepacia 14427 = assay: Sensitivity test (agar dilution), clinical isolate; format: cell-based, Burkholderia cepacia
Protocol: as §3, §1, §4, §2

B. cepacia 14428 = assay: Sensitivity test (agar dilution), clinical isolate; format: cell-based, Burkholderia cepacia
Protocol: as §3, §1, §4, §2

B. cepacia 14429 = assay: Sensitivity test (agar dilution), clinical isolate; format: cell-based, Burkholderia cepacia
Protocol: as §3, §1, §4, §2

B. cepacia 14430 = assay: Sensitivity test (agar dilution), clinical isolate; format: cell-based, Burkholderia cepacia
Protocol: as §3, §1, §4, §2

B. cepacia 14607 = assay: Sensitivity test (agar dilution), clinical isolate; format: cell-based, Burkholderia cepacia
Protocol: as §3, §1, §4, §2

B. cepacia 1993527 = assay: Sensitivity test (agar dilution), clinical isolate; format: cell-based, Burkholderia cepacia
Protocol: as §3, §1, §4, §2

B. cepacia 257-1 = assay: Sensitivity test (agar dilution), clinical isolate; format: cell-based, Burkholderia cepacia
Protocol: as §3, §1, §4, §2

B. cepacia 3138 = assay: Sensitivity test (agar dilution), clinical isolate; format: cell-based, Burkholderia cepacia
Protocol: as §3, §1, §4, §2

B. cepacia 7247 = assay: Sensitivity test (agar dilution), clinical isolate; format: cell-based, Burkholderia cepacia
Protocol: as §3, §1, §4, §2

B. cepacia 7438 = assay: Sensitivity test (agar dilution), clinical isolate; format: cell-based, Burkholderia cepacia
Protocol: as §3, §1, §4, §2

SMILES: C[C@H]1[C@H](NC(=O)/C(=N\OC(C)(C)C(=O)O)c2csc(N)n2)C(=O)N1S(=O)(=O)O [AZT, aztreonam]
- MIC (E. faecium ATCC19434; Enterococcus faecium, ATCC19434, Concomitant (AZT:SM = 1:1), E. faecium ATCC19434, read-out: MIC concomitant): 0.125 µg/mL
- MIC (E. faecium ATCC19434; Enterococcus faecium, ATCC19434, drug alone, E. faecium ATCC19434, read-out: MIC alone): > 32 µg/mL

SMILES: C[C@@H](O)[C@H]1C(=O)N2C(C(=O)O)=C(S[C@@H]3CN[C@H](C(=O)N(C)C)C3)[C@H](C)[C@H]12 [MEPM, meropenem]
- MIC (E. faecium ATCC19434; Concomitant (MEPM:SM = 1:2)): 0.125 µg/mL
- MIC (E. faecium ATCC19434; Enterococcus faecium, ATCC19434): 0.125 µg/mL
- MIC (E. faecium ATCC19434; Enterococcus faecium, ATCC19434, Concomitant (MEPM:SM = 1:4), read-out: MIC): 0.031 µg/mL
- MIC (E. faecium ATCC19434; Enterococcus faecium, ATCC19434, Concomitant drug (MEPM:SM = 2:1), read-out: MIC): 0.5 µg/mL
- MIC (E. faecium ATCC19434; Enterococcus faecium, ATCC19434, alone, read-out: MIC): 8 µg/mL
- MIC (B. cepacia 14300; Burkholderia cepacia, 14300, Concomitant (ME:SM = 1:1)): 0.5 µg/mL
- MIC (B. cepacia 14300; Burkholderia cepacia, 14300, Concomitant (ME:SM = 1:2)): 0.5 µg/mL
- MIC (B. cepacia 14300; Burkholderia cepacia, 14300, Concomitant (ME:SM = 1:4)): 0.25 µg/mL
- MIC (B. cepacia 14300; Burkholderia cepacia, 14300, Concomitant (ME:SM = 2:1)): 0.5 µg/mL
- MIC (B. cepacia 14300; Burkholderia cepacia, 14300, alone): 0.5 µg/mL
- MIC (B. cepacia 14427; Burkholderia cepacia, 14427, Concomitant (ME:SM = 1:1)): 1 µg/mL
- MIC (B. cepacia 14427; Burkholderia cepacia, 14427, Concomitant (ME:SM = 1:2)): 0.5 µg/mL
- MIC (B. cepacia 14427; Burkholderia cepacia, 14427, Concomitant (ME:SM = 1:4)): 0.5 µg/mL
- MIC (B. cepacia 14427; Burkholderia cepacia, 14427, Concomitant (ME:SM = 2:1)): 1 µg/mL
- MIC (B. cepacia 14427; Burkholderia cepacia, 14427, alone): 1 µg/mL
- MIC (B. cepacia 14428; Burkholderia cepacia, 14428, Concomitant (ME:SM = 1:1)): 1 µg/mL
- MIC (B. cepacia 14428; Burkholderia cepacia, 14428, Concomitant (ME:SM = 1:2)): 1 µg/mL
- MIC (B. cepacia 14428; Burkholderia cepacia, 14428, Concomitant (ME:SM = 1:4)): 0.5 µg/mL
- MIC (B. cepacia 14428; Burkholderia cepacia, 14428, Concomitant (ME:SM = 2:1)): 1 µg/mL
- MIC (B. cepacia 14428; Burkholderia cepacia, 14428, alone): 2 µg/mL
- MIC (B. cepacia 14429; Burkholderia cepacia, 14429, Concomitant (ME:SM = 1:1)): 1 µg/mL
- MIC (B. cepacia 14429; Burkholderia cepacia, 14429, Concomitant (ME:SM = 1:2)): 0.5 µg/mL
- MIC (B. cepacia 14429; Burkholderia cepacia, 14429, Concomitant (ME:SM = 1:4)): 0.5 µg/mL
- MIC (B. cepacia 14429; Burkholderia cepacia, 14429, Concomitant (ME:SM = 2:1)): 1 µg/mL
- MIC (B. cepacia 14429; Burkholderia cepacia, 14429, alone): 1 µg/mL
- MIC (B. cepacia 14430; Burkholderia cepacia, 14430, Concomitant (ME:SM = 1:1)): 1 µg/mL
- MIC (B. cepacia 14430; Burkholderia cepacia, 14430, Concomitant (ME:SM = 1:2)): 1 µg/mL
- MIC (B. cepacia 14430; Burkholderia cepacia, 14430, Concomitant (ME:SM = 1:4)): 2 µg/mL
- MIC (B. cepacia 14430; Burkholderia cepacia, 14430, Concomitant (ME:SM = 2:1)): 2 µg/mL
- MIC (B. cepacia 14430; Burkholderia cepacia, 14430, alone): 2 µg/mL
- MIC (B. cepacia 14607; Burkholderia cepacia, 14607, Concomitant (ME:SM = 1:1)): 1 µg/mL
- MIC (B. cepacia 14607; Burkholderia cepacia, 14607, Concomitant (ME:SM = 1:2)): 0.5 µg/mL
- MIC (B. cepacia 14607; Burkholderia cepacia, 14607, Concomitant (ME:SM = 1:4)): 0.5 µg/mL
- MIC (B. cepacia 14607; Burkholderia cepacia, 14607, Concomitant (ME:SM = 2:1)): 1 µg/mL
- MIC (B. cepacia 14607; Burkholderia cepacia, 14607, alone): 1 µg/mL
- MIC (B. cepacia 1993527; Burkholderia cepacia, 1993527, Concomitant (ME:SM = 1:1)): 1 µg/mL
- MIC (B. cepacia 1993527; Burkholderia cepacia, 1993527, Concomitant (ME:SM = 1:2)): 1 µg/mL
- MIC (B. cepacia 1993527; Burkholderia cepacia, 1993527, Concomitant (ME:SM = 1:4)): 2 µg/mL
- MIC (B. cepacia 1993527; Burkholderia cepacia, 1993527, Concomitant (ME:SM = 2:1)): 2 µg/mL
- MIC (B. cepacia 1993527; Burkholderia cepacia, 1993527, alone): 2 µg/mL
- MIC (B. cepacia 257-1; Burkholderia cepacia, 2571, Concomitant (ME:SM = 1:1)): 0.5 µg/mL
- MIC (B. cepacia 257-1; Burkholderia cepacia, 2571, Concomitant (ME:SM = 1:2)): 0.25 µg/mL
- MIC (B. cepacia 257-1; Burkholderia cepacia, 2571, Concomitant (ME:SM = 1:4)): 0.25 µg/mL
- MIC (B. cepacia 257-1; Burkholderia cepacia, 2571, Concomitant (ME:SM = 2:1)): 0.5 µg/mL
- MIC (B. cepacia 257-1; Burkholderia cepacia, 2571, alone): 0.5 µg/mL
- MIC (B. cepacia 3138; Burkholderia cepacia, 3138, Concomitant (ME:SM = 1:1)): 1 µg/mL
- MIC (B. cepacia 3138; Burkholderia cepacia, 3138, Concomitant (ME:SM = 1:2)): 1 µg/mL
- MIC (B. cepacia 3138; Burkholderia cepacia, 3138, Concomitant (ME:SM = 1:4)): 2 µg/mL
- MIC (B. cepacia 3138; Burkholderia cepacia, 3138, Concomitant (ME:SM = 2:1)): 2 µg/mL
- MIC (B. cepacia 3138; Burkholderia cepacia, 3138, alone): 2 µg/mL
- MIC (B. cepacia 7247; Burkholderia cepacia, 7247, Concomitant (ME:SM = 1:1)): 2 µg/mL
- MIC (B. cepacia 7247; Burkholderia cepacia, 7247, Concomitant (ME:SM = 1:2)): 2 µg/mL
- MIC (B. cepacia 7247; Burkholderia cepacia, 7247, Concomitant (ME:SM = 1:4)): 2 µg/mL
- MIC (B. cepacia 7247; Burkholderia cepacia, 7247, Concomitant (ME:SM = 2:1)): 2 µg/mL
- MIC (B. cepacia 7247; Burkholderia cepacia, 7247, alone): 2 µg/mL
- MIC (B. cepacia 7438; Burkholderia cepacia, 7438, Concomitant (ME:SM = 1:1)): 2 µg/mL
- MIC (B. cepacia 7438; Burkholderia cepacia, 7438, Concomitant (ME:SM = 1:2)): 1 µg/mL
- MIC (B. cepacia 7438; Burkholderia cepacia, 7438, Concomitant (ME:SM = 1:4)): 2 µg/mL
- MIC (B. cepacia 7438; Burkholderia cepacia, 7438, Concomitant (ME:SM = 2:1)): 2 µg/mL
- MIC (B. cepacia 7438; Burkholderia cepacia, 7438, alone): 2 µg/mL
